In publication PMC9055250, “Design, synthesis, and biological evaluation of new 6,N^2-diaryl-1,3,5-triazine-2,4-diamines as anticancer agents selectively targeting triple negative breast cancer cells” (RSC Advances, 2020):
Read-outs that look alike come from different tables or passages of the source.

Columns and labels:
[1] = tested on: MDA-MB231 breast cancer cells; test: MTT in vitro cytotoxicity assay, MDA-MB231; type: cell-based; conditions: for viability at 10 µM / GI50: Homo sapiens, MDA-MB-231; for viability at 10 µM: read-out: Cell viability (%) MDA-MB231
Experimental: (§1) The synthesized compounds were tested against three breast tumor cell lines (MDA-MB231, SKBR-3 and MCF-7) and epithelial breast cell line (MCF-10A) by the MTT colorimetric assay.[29,30] All cells were obtained from the American Type Culture Collection. The cancerous cell lines were grown in Dulbecco's modified eagle medium (DMEM) supplemented with 10% fetal bovine serum (FBS) and 1% pen-strep antibiotic. The MCF-10A human epithelial breast cell line was grown in the complete mammary epithelial growth medium containing horse serum 5%, epithelial growth factor 20 ng mL^−1, hydrocortisone […], cholera toxin 100 ng mL^−1, insulin 10 μg mL^−1, and pen-step antibiotic.[31] For the cytotoxic assay, 20 to 75 × 10^3 cells per mL (based on the doubling time for each cell line) were seeded in 96-well plates and the plates were incubated overnight in a humidified air atmosphere at 37 °C in 5% CO2 incubator.
(§2) The cells were then treated with compounds at different concentrations. After 72 h of incubation, the MTT (0.5 mg mL^−1) was added to wells, followed by 4 h of incubation. The culture medium was then removed and DMSO (100 μL per well) was added and the absorbance values were measured at 570 nm using the multi-well Tecan NanoQuant, Infinite m200 Pro plate reader. Growth inhibitory values (GI50) were calculated using GraphPad Prism 7 (GraphPad Software, San Diego, USA) by nonlinear regression analysis. Three independent experiments were carried out and the data was expressed in mean ± standard deviation (SD). The concentration–response curves used for the GI50 calculation are available in ESI. ^†

[2] = tested on: MCF-7 breast cancer cells; test: MTT in vitro cytotoxicity assay, MCF-7; type: cell-based; conditions: Homo sapiens; for viability at 10 µM: MCF7, 10 μM, 72 h, read-out: Cell viability (%) MCF-7; for GI50: MCF7, 72 h, read-out: GI50 ± SD MCF-7
Experimental: as §1, §2

[3] = tested on: SKBR-3 breast cancer cells; test: MTT in vitro cytotoxicity assay, SKBR-3; type: cell-based; conditions: Homo sapiens; for viability at 10 µM: SK-BR-3, 10 μM, 72 h, read-out: Cell viability (%) SKBR-3; for GI50: SK-BR-3, 72 h, read-out: GI50 ± SD SKBR-3
Experimental: as §1, §2

[4] = tested on: MCF-10A human epithelial breast cell line; test: MTT in vitro cytotoxicity assay, MCF-10A; type: cell-based; conditions: 72 h, read-out: GI50 ± SD MCF-10A
Experimental: as §1, §2

[5] = 72 h, MTT, read-out: GI50 ± SD MDA-MB231
[6] = MDA-MB231, calculated from GI50, read-out: Experimental pGI50 (converted)

| Compound | viability at 10 µM ([1]; 72 h, MTT) | GI50 [1, 5] | GI50 [1, 6] | fold increase in antiproliferative activity over regioisomer ([1]; MDA-MB231, para- vs ortho-/meta-substituted ring B (13 vs 19, 14 vs 16, 15 vs 18)) | melting point | viability at 10 µM [2] | GI50 [2] | viability at 10 µM [3] | GI50 [3] | GI50 [4] |
| --- | --- | --- | --- | --- | --- | --- | --- | --- | --- | --- |
| COc1ccc(Nc2nc(N)nc(-c3cc(OC)c(OC)c(OC)c3)n2)cc1 [Compound 19, N ^2-(4-Methoxyphenyl)-6-(3,4,5-trimethoxyphenyl)-1,3,5-triazine-2,4-diamine] | 20% | 0.01 ± 0.001 µM | 0.01 µM | 200 fold | 195 to 197 °C | 52% | > 20 µM | 48% | 0.27 ± 0.02 µM | > 20 µM |
| CN(C)c1ccc(-c2nc(N)nc(Nc3ccccc3Cl)n2)cc1 [Compound 5, N ^2-(2-Chlorophenyl)-6-(4-(dimethylamino)phenyl)-1,3,5-triazine-2,4-diamine] | 28% | 0.1 ± 0.001 µM | 0.1 µM | – | 191 to 193 °C | 86% | > 20 µM | 55% | 0.4 ± 0.04 µM | > 20 µM |
| COc1cc(-c2nc(N)nc(Nc3ccc(C(C)C)cc3)n2)cc(OC)c1OC [Compound 21, N ^2-(4-Isopropylphenyl)-6-(3,4,5-trimethoxyphenyl)-1,3,5-triazine-2,4-diamine] | 9% | 0.04 ± 0.002 µM | 0.0398 µM | – | 190 to 192 °C | 49% | 10.7 ± 1.1 µM | 42% | 1.1 ± 0.05 µM | > 20 µM |
| Cc1ccc(Nc2nc(N)nc(-c3ccc(Cl)cc3)n2)cc1 [Compound 2, 6-(4-Chlorophenyl)-N^2-(4-methylphenyl)-1,3,5-triazine-2,4-diamine] | 29% | 13.8 ± 1.9 µM | 13.8 µM | – | 179 to 181 °C | 100% | > 20 µM | 85% | > 20 µM | > 20 µM |
| COc1ccc(-c2nc(N)nc(Nc3ccccc3)n2)cc1 [Compound 8, 6-(4-Methoxyphenyl)-N^2-phenyl-1,3,5-triazine-2,4-diamine] | 28% | 8.4 ± 0.3 µM | 8.32 µM | – | 190 to 192 °C | 85% | 14.2 ± 1.7 µM | 67% | 19.6 ± 0.9 µM | > 20 µM |
| Cc1ccc(-c2nc(N)nc(Nc3ccc(Cl)cc3)n2)cc1 [Compound 7, N ^2-(4-Chlorophenyl)-6-(4-methylphenyl)-1,3,5-triazine-2,4-diamine] | 51% | 9.6 ± 0.2 µM | 9.55 µM | – | 202 to 204 °C | 95% | > 20 µM | 76% | > 20 µM | > 20 µM |
| CN(Cc1cnc2nc(N)nc(N)c2n1)c1ccc(C(=O)N[C@@H](CCC(=O)O)C(=O)O)cc1 [Methotrexate, reference compound] | – | 0.01 ± 0.001 µM | – | – | – | – | 5.8 ± 0.5 µM | – | – | – |
| Cc1cn(-c2cc(NC(=O)c3ccc(C)c(Nc4nccc(-c5cccnc5)n4)c3)cc(C(F)(F)F)c2)cn1 [Nilotinib, reference compound] | – | 0.04 ± 0.001 µM | – | – | – | – | – | – | 9.6 ± 0.5 µM | – |
| COc1cc(-c2nc(N)nc(Nc3ccc(Br)cc3)n2)cc(OC)c1OC [Compound 17, N ^2-(4-Bromophenyl)-6-(3,4,5-trimethoxyphenyl)-1,3,5-triazine-2,4-diamine] | 24% | 0.008 ± 0.0005 µM | 0.00794 µM | – | 217 to 219 °C | 48% | > 20 µM | 43% | 0.17 ± 0.01 µM | > 20 µM |
| COc1cc(-c2nc(N)nc(Nc3ccc(OC(F)(F)F)cc3)n2)cc(OC)c1OC [Compound 20, N ^2-(4-(Trifluoromethoxy)phenyl)-6-(3,4,5-trimethoxyphenyl)-1,3,5-triazine-2,4-diamine] | 20% | 1.5 ± 0.1 µM | 1.48 µM | – | 179 to 181 °C | 51% | > 20 µM | 45% | 5 ± 0.35 µM | > 20 µM |
| COc1cc(-c2nc(N)nc(Nc3cccc(C)c3)n2)cc(OC)c1OC [Compound 15, N ^2-(3-Methylphenyl)-6-(3,4,5-trimethoxyphenyl)-1,3,5-triazine-2,4-diamine] | 14% | 2.2 ± 0.2 µM | 2.19 µM | – | 192 to 194 °C | 86% | > 20 µM | 43% | 6 ± 0.1 µM | > 20 µM |
| COc1ccccc1Nc1nc(N)nc(-c2cc(OC)c(OC)c(OC)c2)n1 [Compound 13, N ^2-(2-Methoxyphenyl)-6-(3,4,5-trimethoxyphenyl)-1,3,5-triazine-2,4-diamine] | 16% | 2.1 ± 0.2 µM | 2.04 µM | – | 173 to 175 °C | 100% | > 20 µM | 57% | 14 ± 1.6 µM | > 20 µM |
| COc1cc(-c2nc(N)nc(Nc3ccccc3Cl)n2)cc(OC)c1OC [Compound 12, N ^2-(2-Chlorophenyl)-6-(3,4,5-trimethoxyphenyl)-1,3,5-triazine-2,4-diamine] | 42% | 11.3 ± 1.1 µM | 11.2 µM | – | 176 to 178 °C | 100% | > 20 µM | 80% | > 20 µM | > 20 µM |
| COc1ccc(-c2nc(N)nc(Nc3ccc(C)cc3)n2)cc1 [Compound 9, 6-(4-Methoxyphenyl)-N^2-(4-methylphenyl)-1,3,5-triazine-2,4-diamine] | 32% | 6.1 ± 0.6 µM | 6.17 µM | – | 186 to 188 °C | 99% | > 20 µM | 89% | > 20 µM | > 20 µM |
| Cc1ccc(-c2nc(N)nc(Nc3ccccc3Cl)n2)cc1 [Compound 6, N ^2-(2-Chlorophenyl)-6-(4-methylphenyl)-1,3,5-triazine-2,4-diamine] | 36% | 3.8 ± 0.4 µM | 3.8 µM | – | 146 to 148 °C | 51% | 10.7 ± 1 µM | 80% | > 20 µM | > 20 µM |
| Nc1nc(Nc2ccc(Cl)cc2)nc(-c2ccc(OC(F)(F)F)cc2)n1 [Compound 4, N ^2-(4-Chlorophenyl)-6-(4-(trifluoromethoxy)phenyl)-1,3,5-triazine-2,4-diamine] | 34% | 16.7 ± 1.2 µM | 16.6 µM | – | 201 to 203 °C | 95% | > 20 µM | 86% | > 20 µM | > 20 µM |
| COc1ccccc1Nc1nc(N)nc(-c2cccc(F)c2)n1 [Compound 1, 6-(3-Fluorophenyl)-N^2-(2-methoxyphenyl)-1,3,5-triazine-2,4-diamine] | 49% | 17.3 ± 0.6 µM | 17.4 µM | – | 140 to 142 °C | 88% | > 20 µM | 84% | > 20 µM | > 20 µM |
| COc1cc(-c2nc(N)nc(Nc3cccc(Cl)c3)n2)cc(OC)c1OC [Compound 14, N ^2-(3-Chlorophenyl)-6-(3,4,5-trimethoxyphenyl)-1,3,5-triazine-2,4-diamine] | 40% | 9.1 ± 1.1 µM | 9.12 µM | – | 193 to 195 °C | 96% | > 20 µM | 58% | 16.7 ± 1.4 µM | > 20 µM |
| Nc1nc(Nc2ccccc2Cl)nc(-c2ccc(C(F)(F)F)cc2)n1 [Compound 3, N ^2-(2-Chlorophenyl)-6-(4-(trifluoromethyl)phenyl)-1,3,5-triazine-2,4-diamine] | 49% | 13.7 ± 0.6 µM | 13.8 µM | – | 165 to 167 °C | 96% | > 20 µM | 83% | 17.7 ± 1.4 µM | > 20 µM |
